Assay results published in patent US9944647B2 (Incyte Corporation, priority 2015, dated 2018).

These compounds were tested against LSD-1 enzyme (Homo sapiens (Human), UniProt O60341) (assay: LANCE LSD1/KDM1A demethylase assay (LSD1 histone demethylase biochemical assay)). Conditions: 1 nM LSD-1 enzyme, 1 hour preincubation at 25° C., Biotin-labeled Histone H3 peptide substrate.
In the case of `C[C@@H](O)CN1CCC[C@@H](COc2nc(-c3ccc(C#N)cc3)c(-c3cnc4c(cnn4C)c3)c3nccn23)C1` [Example 136, 4-[5-({(3R)-1-[(2R)-2-hydroxypropyl]piperidin-3-yl}methoxy)-8-(1-methyl-1H-pyrazolo[3,4-b]pyridin-5-yl)imidazo[1,2-c]pyrimidin-7-yl]benzonitrile], the IC50 is reported as 50 to 500 nM. With `C[C@H](O)CN1CCC[C@@H](COc2nc(-c3ccc(C#N)cc3)c(-c3cnc4c(cnn4C)c3)c3nccn23)C1` [Example 137, 4-[5-({(3R)-1-[(2S)-2-hydroxypropyl]piperidin-3-yl}methoxy)-8-(1-methyl-1H-pyrazolo[3,4-b]pyridin-5-yl)imidazo[1,2-c]pyrimidin-7-yl]benzonitrile] the IC50 was ≤ 50 nM. In the case of `Cn1ncc2cc(-c3c(-c4ccc(C#N)cc4)nc(OC[C@@H]4CCCN(CC(C)(C)O)C4)n4ccnc34)cnc21` [Example 138, 4-[5-{[(3R)-1-(2-hydroxy-2-methylpropyl)piperidin-3-yl]methoxy}-8-(1-methyl-1H-pyrazolo[3,4-b]pyridin-5-yl)imidazo[1,2-c]pyrimidin-7-yl]benzonitrile], the IC50 is reported as 50 to 500 nM.
